Measurements published in patent publication US10842151B2, “Small molecule compound for enhancing plant stress resistance” (SHANGHAI INSTITUTES FOR BIOLOGICAL SCIENCES, CHINESE …, priority 2015, dated 2020).
Like-named read-outs stand apart in the source and are kept apart here. Blank lines part the entries; values can stand above or below the compound they belong to.

Experiments:
cotton = experiment: Cotton leaf transpiration experiment (thermal imaging); assay type: in vivo; conditions: 50 μM; after two days; vs DMSO
Procedure: (§1) Leaf transpiration experiments of soybean and cotton for compound 0720B were carried out at 26° C. with long-day lighting. 16 days and 23 days after sowing, a solution containing 0.1% tween-20 and corresponding concentration of (+)-ABA, or 0720B compound or 0.1% Tween-20 and 0.05% DMSO (control) was sprayed in an amount of 4 ml/pot. Images were taken daily using the FLIR A655sc thermal imaging camera at the same time before and after spraying.

[1] = system: pyr1;pyl1;pyl4 triple mutant seeds; experiment: Seed germination, PYR/PYL triple mutant; assay type: in vivo, Arabidopsis thaliana; conditions: 1 μM; six days after seeding
Text: (§2) Two lines of plant were sown simultaneously on a single medium of 6 cm diameter, with 15 seeds sown for each line and 4 replicates for each compound. […]

PYR1 + HAB1 = molecular target: T1, PYR1 + HAB1 (Arabidopsis thaliana, UniProt O49686); experiment: AlphaScreen experiment, PYR1 + HAB1; assay type: binding; conditions: column 2
T1 sequence (O49686 1-191): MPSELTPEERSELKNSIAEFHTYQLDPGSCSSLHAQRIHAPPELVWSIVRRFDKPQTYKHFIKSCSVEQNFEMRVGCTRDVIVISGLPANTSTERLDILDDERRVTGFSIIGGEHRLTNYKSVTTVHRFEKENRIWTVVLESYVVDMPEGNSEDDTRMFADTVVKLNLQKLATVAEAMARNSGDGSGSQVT
T1 sequence (Q9CAJ0 172-511 partner): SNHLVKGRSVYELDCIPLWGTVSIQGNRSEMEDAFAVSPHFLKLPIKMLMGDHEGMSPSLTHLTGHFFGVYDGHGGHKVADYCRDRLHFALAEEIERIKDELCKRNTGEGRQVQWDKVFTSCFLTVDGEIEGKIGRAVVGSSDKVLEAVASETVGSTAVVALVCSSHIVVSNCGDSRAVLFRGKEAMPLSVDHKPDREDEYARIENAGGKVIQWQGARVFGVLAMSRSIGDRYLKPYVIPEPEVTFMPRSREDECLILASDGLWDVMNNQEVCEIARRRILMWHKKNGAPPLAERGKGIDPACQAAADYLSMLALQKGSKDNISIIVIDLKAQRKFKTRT
Procedure: (§3) After incubating for 1.5 hours at room temperature in the dark, it was placed into an Envision Plate Reader (available from Perkin Elmer) under the programmed AlphaScreen procedure for readings.

soybean Williams 82 = experiment: Soybean leaf transpiration experiment (thermal imaging); assay type: in vivo
Procedure: After three weeks of continuous watering, 0.05% tween-20 and corresponding concentrations of DMSO (control)/compound (+)-ABA/0918/1127 were sprayed onto the plants in a single administration with an amount of 1.2 ml/pot. Images were taken daily using the FLIR A655sc thermal imaging camera at the same time before and after spraying. The Williams 82 ecotype was used in soybean leaf transpiration experiments for compounds 0604c, 0918 and 1127 and was long-day cultured at 26° C. After the plants grew and had 3 leaves in each of 3 groups, 0.05% tween-20 and 50 μM DMSO (control)/(+)-ABA/0604c/0918/1127 compounds were sprayed in a single administration with an amount of 4 ml/pot. Images were taken daily using the FLIR A655sc thermal imaging camera at the same time before and after spraying.
as §1

[2] = system: Arabidopsis ABA synthesis defective mutant aba2-1; assay type: in vivo, Arabidopsis thaliana; conditions: 5 μM sprayed; after two days; vs DMSO
[3] = system: Arabidopsis Col-0 ecotype; experiment: Soil drought experiment, Arabidopsis; assay type: in vivo, Arabidopsis thaliana
Procedure: Seeds of Arabidopsis Col-0 ecotype were sterilized with NaClO and then sown on ½ MS solid medium at 4° C. for 3 days of vernalization. After 6 days of growing, the well-grown seedlings having uniform size were selected and transferred into 8×7×6 cm^3 pots. Each pot was filled with the same weight of soil and the same number of plants (six plants) was planted to reduce experimental error. All the pots were subjected to a short-day culture at 22° C. After two weeks, watering was stopped for drought treatment. […] The position of the flowerpot was changed every day during the process of drought to reduce the error caused by environmental factors. During the whole drought period, the solution was sprayed twice in total and photos were recorded regularly. The watering was resumed in about three weeks.

PYL2 + HAB1 [4] = molecular target: T2, PYL2 + HAB1 (Arabidopsis thaliana, UniProt O80992); experiment: AlphaScreen experiment, PYL2 + HAB1; assay type: binding
T2 construct: made in house; host or cells: E. coli BL21 (DE3)
T2 sequence (O80992 14-188 limits assumed): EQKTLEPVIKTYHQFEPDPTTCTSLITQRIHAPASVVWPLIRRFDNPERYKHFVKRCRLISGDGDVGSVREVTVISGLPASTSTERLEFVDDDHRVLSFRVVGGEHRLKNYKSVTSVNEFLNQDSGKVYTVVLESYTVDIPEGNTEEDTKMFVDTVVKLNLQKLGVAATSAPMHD
T2 sequence (Q9CAJ0 172-511 partner limits assumed): T1 sequence (Q9CAJ0 172-511 partner)
Procedure: as §3

PYL7 + HAB1 = molecular target: T3, PYL7 + HAB1 (Arabidopsis thaliana, UniProt Q1ECF1); experiment: AlphaScreen experiment, PYL7 + HAB1; assay type: binding
T3 construct: made in house; host or cells: E. coli BL21 (DE3)
T3 sequence (Q1ECF1 1-211): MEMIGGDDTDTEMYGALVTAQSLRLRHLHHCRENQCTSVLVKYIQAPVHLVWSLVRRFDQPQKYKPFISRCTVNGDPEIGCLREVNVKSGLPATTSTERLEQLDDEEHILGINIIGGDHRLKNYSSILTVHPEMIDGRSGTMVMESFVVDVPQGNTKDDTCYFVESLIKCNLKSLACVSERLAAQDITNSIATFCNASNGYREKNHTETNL
T3 sequence (Q9CAJ0 172-511 partner limits assumed): T1 sequence (Q9CAJ0 172-511 partner)
Procedure: as §3

[5] = system: Arabidopsis thaliana Col-0 ecotype seeds; experiment: Seed germination, Col-0; assay type: in vivo; conditions: 1 μM; six days after seeding
Text: as §2

[6] = system: ABA-induced environmental stress-related gene expression; experiment: Gene expression analysis (fluorescence quantitative PCR); assay type: in vivo, Arabidopsis thaliana (Col-0); conditions: for expression levels of most ABA-induced stress-related genes compared with ABA: 10 μM, 6 hours of treatment, 10-day-aged seedlings
Procedure: The whole plant or leaves were taken, and RNA extraction was carried out by using conventional methods. After reverse transcription, the fluorescence quantitative PCR was carried out. Triple biological samples were taken for each treatment which was performed twice. The ACT7 gene was used as a reference gene.

PYL2 + HAB1 [7] = molecular target: T2, PYL2 + HAB1; experiment: HAB1 phosphatase activity assay with PYL2, SnRK2.6 phosphorylated polypeptide substrate; assay type: biochemical
Procedure: (§4) HAB1 Phosphatase Activity Assay […] The reaction system was incubated at room temperature for 30 minutes, followed by a further reaction for 30 minutes after adding an 11-amono acid phosphorylated polypeptide as a substrate. The phosphorylated polypeptide consisting of amino acid 170-180 of SnRK2.6 protein kinase (sequence […]) was purchased from […] company, wherein phosphorylated […] was a known HAB1 dephosphorylation target site. After 30 minutes, chromogenic reagent (purchased from BioVision) was added and the absorbance at 650 nm was read on a microplate reader (Molecular Devices).

[8] = system: soybean GmPYL3 and GmPYL6 + Arabidopsis AtHAB1; experiment: AlphaScreen experiment with soybean GmPYL receptors; assay type: binding; conditions: FIG. 9
Procedure: as §3

[9] = system: PYR/PYL receptors (PYR1, PYL1, PYL2 and PYL7)-HAB1 complex; experiment: Broad spectrum experiment on PYR/PYL receptors (HAB1 phosphatase activity); assay type: biochemical, Arabidopsis; conditions: 1 μM
Procedure: as §4

[10] = 5 μM sprayed, 18 days after drought
[11] = 10 μM sprayed, after 17 days of drought
[12] = number in brackets, read-out: Half maximum effect concentration EC50 (PYL2 + HAB1)
[13] = number in brackets, read-out: Half maximum effect concentration EC50 (PYR1 + HAB1)
[14] = number in brackets, read-out: Half maximum effect concentration EC50 (PYL7 + HAB1)

- EC50 (PYR1 + HAB1; [13]): 0.04 µM
- EC50 (PYL2 + HAB1 [4]; [12]): 0.06 µM
SMILES: CCCN1C(=O)CCc2cc(NS(=O)(=O)Cc3ccc(Cl)cc3F)ccc21 [Compound 0925]

- EC50 (PYR1 + HAB1; [13]): 0.14 µM
- EC50 (PYL2 + HAB1 [4]; [12]): 0.08 µM
SMILES: CCCN1C(=O)CCc2cc(NS(=O)(=O)Cc3ccc(C(F)(F)F)c(F)c3)ccc21 [Compound 1020A]

- EC50 (PYR1 + HAB1; [13]): 0.05 µM
- EC50 (PYL2 + HAB1 [4]; [12]): 0.08 µM
SMILES: CCCN1C(=O)CCc2cc(NS(=O)(=O)Cc3c(F)c(F)c(C(F)(F)F)c(F)c3F)ccc21 [Compound 1020B]

- EC50 (PYR1 + HAB1; [13]): 0.12 µM
- EC50 (PYL2 + HAB1 [4]; [12]): 0.05 µM
- EC50 (PYL7 + HAB1; [14]): 0.15 µM
SMILES: CCCN1C(=O)CCc2cc(NS(=O)(=O)Cc3ccc(C)c(Cl)c3)ccc21 [Compound 1103B]

- EC50 (PYR1 + HAB1; [13]): 0.05 µM
- EC50 (PYL2 + HAB1 [4]; [12]): 0.03 µM
- EC50 (PYL7 + HAB1; [14]): 0.04 µM
SMILES: CCCN1C(=O)CCc2cc(NS(=O)(=O)Cc3ccc(C)cc3F)ccc21 [Compound 1125A]

Second part, the compound before the results:

SMILES: CC1=CC(=O)CC(C)(C)[C@@]1(O)/C=C/C(C)=C\C(=O)O [ABA, Abscisic Acid, reference compound]
- leaf temperature (cotton): had no difference from that in the control group
- germination of pyr1;pyl1;pyl4 triple mutant seeds [1]: could not inhibit germination of PYR/PYL triple mutant pyr1;pyl1;pyl4 seeds
- EC50 (PYR1 + HAB1; Half maximum effect concentration EC50 (PYR1 + HAB1), class, class symbol): 0.1 to 1 µM
- EC50 (PYR1 + HAB1; Half maximum effect concentration EC50 (PYR1 + HAB1), number in brackets): 0.7 µM
- leaf temperature (soybean Williams 82; 50 μM sprayed, 0.2 μmol per plant, after three days, vs DMSO): had no difference with the control
- leaf temperature (soybean Williams 82; two days after spraying, 0720B 20 μM or 50 μM, ABA 50 μM): had no difference from that in the control group
- leaf surface temperature [2]: higher than that of DMSO control group
- plant survival [3, 10]: died because of drought
- plant survival [3, 11]: died because of drought
- EC50 (PYL2 + HAB1 [4]; Half maximum effect concentration EC50 (PYL2 + HAB1), class, class symbol): 0.1 to 1 µM
- EC50 (PYL2 + HAB1 [4]; Half maximum effect concentration EC50 (PYL2 + HAB1), number in brackets): 0.41 µM
- EC50 (PYL7 + HAB1; Half maximum effect concentration EC50 (PYL7 + HAB1), class, class symbol): 1 to 10 µM
- EC50 (PYL7 + HAB1; Half maximum effect concentration EC50 (PYL7 + HAB1), number in brackets): 1.07 µM
- germination of Col-0 ecotype seeds [5]: could still inhibit germination of Col-0 ecotype seeds

SMILES: CCCN1C(=O)CCc2cc(NS(=O)(=O)Cc3ccc(C)cc3)ccc21 [AM1, 4-methyl-N-(1,2,3,4-tetrahydro-2-oxo-1-propyl-6-quinolinyl)-benzene methanesulfonamide, reference compound]
- germination of pyr1;pyl1;pyl4 triple mutant seeds [1]: could not inhibit germination of PYR/PYL triple mutant pyr1;pyl1;pyl4 seeds
- expression levels of most ABA-induced stress-related genes compared with ABA [6]: lower than the level in the plants treated with 10 μM ABA
- leaf surface temperature [2]: higher than that of DMSO control group
- plant survival [3, 11]: died because of drought
- inhibition ratio Z of HAB1 relative enzyme activity (PYL2 + HAB1) (PYL2 + HAB1 [7]; at 0.1 μM, Z relative to ABA): 86%
- EC50 (PYL2 + HAB1 [4]; [12]): 0.48 µM
- germination of Col-0 ecotype seeds [5]: could still inhibit germination of Col-0 ecotype seeds

SMILES: CCCN1C(=O)CCc2cc(NS(=O)(=O)Cc3ccc(C)c(F)c3)ccc21 [Compound 0604c]
- germination of pyr1;pyl1;pyl4 triple mutant seeds [1]: could not inhibit germination of PYR/PYL triple mutant pyr1;pyl1;pyl4 seeds
- expression levels of most ABA-induced stress-related genes compared with ABA [6]: significantly exceeded the level in the plants treated with 10 μM ABA
- expression level of relevant genes compared with ABA ([6]; one day after treatment, ABA 10 μM): significantly higher than that in the plants treated with 10 μM ABA
- EC50 (PYR1 + HAB1; [13]): 0.04 µM
- plant survival [3, 11]: still survived
- EC50 (PYL2 + HAB1 [4]; [12]): 0.04 µM
- affinities for soybean GmPYL proteins compared with ABA [8]: significantly higher affinities
- binding to PYR/PYL receptors [9]: could bind with PYR1/PYL1/PYL2/PYL3/PYL4/PYL5/PYL7/PYL10
- binding ability with PYR1/PYL1/PYL2/PYL7 compared with ABA ([9]; FIG. 1, FIG. 13): significantly higher than those of ABA
- EC50 (PYL7 + HAB1; [14]): 0.03 µM
- germination of Col-0 ecotype seeds [5]: could still inhibit germination of Col-0 ecotype seeds

SMILES: CCCn1c(=O)ccc2cc(NS(=O)(=O)Cc3c(F)c(F)c(C)c(F)c3F)ccc21 [Compound 0717]
- expression levels of most ABA-induced stress-related genes compared with ABA [6]: significantly exceeded the level in the plants treated with 10 μM ABA

SMILES: CCCN1C(=O)CC(C)(C)c2cc(NS(=O)(=O)Cc3c(F)c(F)c(C)c(F)c3F)ccc21 [Compound 0825A]
- inhibition of the dephosphorylation effect of HAB1 on SnRK2.6 phosphorylated polypeptide compared with ABA (PYL2 + HAB1 [7]; PYL2 receptor, same concentration as ABA): significantly better than that of ABA at the same concentration

SMILES: CCCN1C(=O)CCc2cc(NS(=O)(=O)Cc3cc(F)c(C)c(F)c3)ccc21 [Compound 1125B]
- EC50 (PYR1 + HAB1; [13]): 0.02 µM
- plant survival [3, 10]: still survived
- EC50 (PYL2 + HAB1 [4]; [12]): 0.02 µM
- EC50 (PYL7 + HAB1; [14]): 0.02 µM
